From publication PMC4515095, “Structures of the Apo and FAD-Bound Forms of 2-Hydroxybiphenyl 3-monooxygenase (HbpA) Locate Activity Hotspots Identified by Using Directed Evolution” (Chembiochem, 2015)
Blank lines part the entries; values can stand above or below the compound they belong to.

Assays:
[1] = molecular target: T1, HbpA; 2-hydroxybiphenyl 3-monooxygenase (Pseudomonas nitroreducens, UniProt O06647); test: UV spectrophotometry of NADH oxidation at […] nm; type: biochemical; conditions: co-substrate NADH; air-saturated buffer; read-out: WT
T1 construct: full length with uncleaved N-terminal His6 tag, spacer and 3C site (21 residues longer than native); pET-YSBLIC-3C, E. coli BL21(DE3); homotetramer; tag not removed for crystals
T1 sequence (O06647 1-586): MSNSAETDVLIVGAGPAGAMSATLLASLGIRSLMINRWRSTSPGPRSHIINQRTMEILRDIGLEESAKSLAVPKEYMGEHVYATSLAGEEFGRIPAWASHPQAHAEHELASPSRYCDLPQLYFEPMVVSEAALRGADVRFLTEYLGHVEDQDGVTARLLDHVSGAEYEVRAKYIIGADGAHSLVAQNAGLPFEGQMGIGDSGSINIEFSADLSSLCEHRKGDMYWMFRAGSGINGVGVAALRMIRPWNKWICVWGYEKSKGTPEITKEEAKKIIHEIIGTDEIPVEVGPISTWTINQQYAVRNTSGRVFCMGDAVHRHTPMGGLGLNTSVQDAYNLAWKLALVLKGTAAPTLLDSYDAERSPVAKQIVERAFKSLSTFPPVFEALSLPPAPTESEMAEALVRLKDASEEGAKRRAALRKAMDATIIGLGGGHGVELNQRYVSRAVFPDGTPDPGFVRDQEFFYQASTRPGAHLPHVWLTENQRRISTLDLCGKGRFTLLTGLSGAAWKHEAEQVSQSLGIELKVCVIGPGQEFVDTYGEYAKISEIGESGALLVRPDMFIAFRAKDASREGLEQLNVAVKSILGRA

[2] = molecular target: T1, HbpA; 2-hydroxybiphenyl 3-monooxygenase; test: X-ray crystal structure, […] Å, FAD soak; type: binding; conditions: crystals soaked in 1 mM FAD; flavin in the "in" position
[3] = molecular target: 2-hydroxybiphenyl 3-monooxygenase (HbpA) from Pseudomonas azelaica HBP1 (Pseudomonas azelaica HBP1); test: crystal structure; P1 crystals with four molecules in the asymmetric unit (one tetramer); apo form and FAD complex (crystals soaked in 1 mM FAD); grown in 18 % PEG 3350, 0.15 M KSCN, Bis-Tris propane pH 5.5, protein 10 mg/mL

Compound: Oc1ccccc1-c1ccccc1 [2HBP]
Km [1]: 3.3 ± 0.2 µM

Compound: Cc1cc2nc3c(=O)[nH]c(=O)nc-3n(C[C@H](O)[C@H](O)[C@H](O)COP(=O)(O)OP(=O)(O)OC[C@H]3O[C@@H](n4cnc5c(N)ncnc54)[C@H](O)[C@@H]3O)c2cc1C [FAD]
X-ray crystal structure, 2.03 Å, FAD soak [2]: both apo-HbpA and the FAD complex have been deposited in the Protein Data Bank

stoichiometry N [3]: 4
Compound: 2-hydroxybiphenyl 3-monooxygenase (HbpA) from Pseudomonas azelaica HBP1 (enzyme)
